Patent publication US6878514B1, “Methods for identifying agents that inhibit serum aging factors and uses and compositions thereof” (Purdue Research Foundation, priority 1999, dated 2005)
Like-named read-outs stand apart in the source and are kept apart here. Values belong to the compound of their own block, whether it stands above or below them.

How the values were obtained:
[1] = target: T1, NOX (NADH oxidase / ubiquinol oxidase) from HeLa cells (Homo sapiens, UniProt Q16206); assay: NOX-catalyzed oxidation of ubiquinol (preparation solubilized from HeLa cells); format: biochemical; settings: HeLa NOX preparation; for EC50: read-out: EC50 inhibition of NOX-catalyzed oxidation of ubiquinol
T1 construct: other: HeLa NOX preparation; other: NOX partially purified from surface of HeLa cells
T1 sequence (Q16206 1-610): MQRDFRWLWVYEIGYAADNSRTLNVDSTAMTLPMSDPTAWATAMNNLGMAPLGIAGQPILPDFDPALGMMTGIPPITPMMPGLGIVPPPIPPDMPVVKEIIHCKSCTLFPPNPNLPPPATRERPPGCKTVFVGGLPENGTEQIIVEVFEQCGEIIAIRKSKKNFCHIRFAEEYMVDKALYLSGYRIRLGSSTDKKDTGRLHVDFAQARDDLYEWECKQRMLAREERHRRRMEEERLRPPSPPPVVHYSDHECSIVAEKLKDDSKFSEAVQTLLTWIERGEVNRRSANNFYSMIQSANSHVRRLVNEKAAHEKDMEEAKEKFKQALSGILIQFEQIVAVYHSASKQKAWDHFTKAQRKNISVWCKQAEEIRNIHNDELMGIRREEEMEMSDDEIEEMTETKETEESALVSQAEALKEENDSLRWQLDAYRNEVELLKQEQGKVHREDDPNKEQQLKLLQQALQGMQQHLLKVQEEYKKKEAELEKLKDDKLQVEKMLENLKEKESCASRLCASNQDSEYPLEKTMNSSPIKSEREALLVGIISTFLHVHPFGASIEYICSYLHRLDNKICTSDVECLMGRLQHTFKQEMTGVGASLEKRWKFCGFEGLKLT
Protocol: (§1) FIG. 1. Oxidation of reduced ubiquinol at 37° C. by an enzymatic preparation with NADH oxidase activity solubilized from HeLa cells by low pH treatmnent, followed by heat and proteinase K. The disappearance of reduced ubiquinol was determined from the increase in absorbance at 410 nm as a function of time in the presence of 1 mg of the HeLa protein. The concentration of quinol was 50 mM, pH 7.
(§2) Ubiquinol oxidation was estimated based on increase in absorbance at 410 nm for ubiquinone (FIG. 1).

[2] = target: T1, NOX (NADH oxidase / ubiquinol oxidase) from HeLa cells; settings: NOX partially purified from surface of HeLa cells; cited from earlier work
AR-NOX in sera = assay: Cytochrome c reduction by sera and inhibition by SOD or ubiquinone (Q10); format: biochemical, human
Protocol: (§3) The generation of superoxide radical was determined by assaying the rate of superoxide dismutase (SOD)-inhibitable cytochrome c reduction (Mayo and Curnette, 1990, Meth Enzymol. 186:567-575 and Butler et al., 1982, J. Biol. Chem. 257:10747-10750). The cytochrome c was from horse heart mitochondria (type VI, Sigma) and was dissolved in PBSG buffer (see below) to make a solution with a concentration of 1 mg/ml. Air-saturated reaction mixtures of […] cytochrome c stock solution and […] of a cell suspension (suspended in PBSG buffer) to give a final concentration of ˜5×10^6 cells/ml were added to 2 ml of PBSG buffer (138 mM NaCl, 2.7 mM KCl, 8.1 mM Na2HHPO4, pH 7.4 supplemented with 0.9 mM CaCl2, and 7.5 mM glucose and contained in plastic cuvettes. The formation of reduced cytochrome c was measured in the presence and absence of SOD (15 mg, Sigma) or capsaicin (2.5 mM) by comparing the absorbance of the mixture at 550 nm-540 nm. Superoxide formation was stimulated by using a handheld UV light (254 nm, 200 mw/cm^2). The extent of cytochrome c reduction was monitored spectrophotometrically at 550 nm every ten sec with gentle mixing between readings. Data were analyzed from the slope of the change in a 550 nm-540 nm before and after UV and then again after SOD or capsaicin was added. Data were expressed as nmoles O2[…]/10^6 cells using a value of SM550nm=19.1×10^3 M^−1 cm^−1.
Cytochrome c reduction by sera was assayed as for cells except that the samples were not mixed in between readings. The Q10 was added as an ethanolic solution.
Sera were obtained from the patient population of St. Elizabeth Hospital, Lafayette, Ind. and the resident population of St. Anthony's Health Care, Lafayette, Ind. Confidentiality of medical records was assured by assigning a number to each sample.

BT-20 = assay: UV-induced superoxide production (cytochrome c reduction) by BT-20 cells; format: cell-based, human
Protocol: as §3

[3] = target: T2, partially-purified preparation of the oxidase from HeLa cells (Homo sapiens, UniProt Q16206); assay: UV-induced superoxide generation by partially-purified oxidase from HeLa cells; format: biochemical
T2 construct: endogenous in cells; host or cells: HeLa
T2 sequence (Q16206 1-610): T1 sequence (Q16206 1-610)

HeLa S = assay: UV-induced superoxide production (cytochrome c reduction) by HeLa S cells; format: cell-based, human
Protocol: as §3

MCF 10A = assay: UV-induced superoxide production (cytochrome c reduction) by MCF 10A cells; format: cell-based, human
Protocol: as §3

[4] = tested on: T3, NOX (NADH oxidase / ubiquinol oxidase) from HeLa cells; assay: NOX-catalyzed oxidation of ubiquinol (preparation solubilized from HeLa cells); format: biochemical, human; settings: read-out: Km for quinol; substrate of NOX-catalyzed oxidation; heading: Km for quinol
T3 construct: rows headed: Km for quinol; other: substrate of NOX-catalyzed oxidation; Response of NOX-catalyzed oxidation of ubiquinol to agent; other: HeLa NOX preparation; Km for reduced Q10H2; other: NOX partially purified from surface of HeLa cells
Protocol: as §1, §2

[5] = tested on: T3, NOX (NADH oxidase / ubiquinol oxidase) from HeLa cells; settings: read-out: Km for reduced Q10H2; NOX partially purified from surface of HeLa cells; heading: Km for reduced Q10H2; cited from earlier work

Type of inhibition of NOX-catalyzed oxidation of ubiquinol [1]: competitive
EC50 [1]: 30 nM
Structure (SMILES): Cc1ccc(S(=O)(=O)NC(=O)Nc2ccc(Cl)cc2)cc1 [LY181984, N-(4-methylphenylsulfonyl)-N′-(4-chlorophenyl)urea]
Inhibition of ubiquinol oxidase activity [2]: inhibited competitively

Structure (SMILES): COC1=C(OC)C(=O)C(C/C=C(\C)CC/C=C(\C)CC/C=C(\C)CC/C=C(\C)CC/C=C(\C)CC/C=C(\C)CC/C=C(\C)CC/C=C(\C)CC/C=C(\C)CCC=C(C)C)=C(C)C1=O [Q10]
Effect on superoxide-generating, aging-related enzymatic activity of sera (AR-NOX in sera; 0.1 mM coenzyme Q, sera of elderly individuals 80-94 years): substantially reduced
Inhibition of reduction of cytochrome c by sera of aged patients, on average (AR-NOX in sera; sera of aged patients, average): 36%
Reduction of cytochrome c by sera, + 45 mg Q10 (AR-NOX in sera; sera of individuals 83-95 years (n = 5)): 2.5 ± 1.4 nmoles/min/ml/sera

Type of inhibition of NOX-catalyzed oxidation of ubiquinol [1]: competitive
EC50 [1]: 1 nM
Effect on UV-induced superoxide generation by partially-purified oxidase [3]: inhibited
Structure (SMILES): COc1cc(CNC(=O)CCCC/C=C/C(C)C)ccc1O [capsaicin, 8-methyl-N-vanillyl-6-noneamide]
Effect on response to UV (superoxide generation) (BT-20): inhibited
Reduction of cytochrome c as a measure of superoxide formation, After UV, + Capsaicin (BT-20; 10 minutes of 254 nm UV, 2.5 mM capsaicin in DMSO, corrected for DMSO blank): −3.7 nmoles/min/10^6 cells
Effect on response to UV (superoxide generation) (HeLa S; HeLa): inhibited
Reduction of cytochrome c as a measure of superoxide formation, After UV, + Capsaicin (HeLa S; HeLa S, 10 minutes of 254 nm UV, 2.5 mM capsaicin in DMSO, corrected for DMSO blank): 0.8 nmoles/min/10^6 cells
Effect on UV-induced generation of superoxide (MCF 10A; MCF10A): unaffected
Reduction of cytochrome c as a measure of superoxide formation, After UV, + Capsaicin (MCF 10A; MCF 10A, 10 minutes of 254 nm UV, 2.5 mM capsaicin in DMSO, corrected for DMSO blank): 7.2 nmoles/min/10^6 cells
Inhibition of ubiquinol oxidase activity [2]: inhibited competitively

Structure (SMILES): COc1c(O)c(C)c(C/C=C(\C)CC/C=C(\C)CC/C=C(\C)CC/C=C(\C)CC/C=C(\C)CC/C=C(\C)CC/C=C(\C)CC/C=C(\C)CC/C=C(\C)CCC=C(C)C)c(O)c1OC [quinol]
Km [4]: 33 µM
Km [5]: 30 µM
